{"source": "patent US20200375929A1", "about": "“METHODS AND COMPOSITIONS FOR THE TREATMENT OF DISEASES ASSOCIATED WITH CANCER, INFLAMMATION, OR IMMUNE RESPONSE” (Washington University, priority 2017, published 2020)", "key": {"SDH": {"molecular_target": "T1, SDH (Mus musculus, UniProt Q8K2B3)", "T1 construct": "from tissue; host or cells: mitochondria isolated from mouse heart and liver", "T1 sequence (Q8K2B3 43-664)": "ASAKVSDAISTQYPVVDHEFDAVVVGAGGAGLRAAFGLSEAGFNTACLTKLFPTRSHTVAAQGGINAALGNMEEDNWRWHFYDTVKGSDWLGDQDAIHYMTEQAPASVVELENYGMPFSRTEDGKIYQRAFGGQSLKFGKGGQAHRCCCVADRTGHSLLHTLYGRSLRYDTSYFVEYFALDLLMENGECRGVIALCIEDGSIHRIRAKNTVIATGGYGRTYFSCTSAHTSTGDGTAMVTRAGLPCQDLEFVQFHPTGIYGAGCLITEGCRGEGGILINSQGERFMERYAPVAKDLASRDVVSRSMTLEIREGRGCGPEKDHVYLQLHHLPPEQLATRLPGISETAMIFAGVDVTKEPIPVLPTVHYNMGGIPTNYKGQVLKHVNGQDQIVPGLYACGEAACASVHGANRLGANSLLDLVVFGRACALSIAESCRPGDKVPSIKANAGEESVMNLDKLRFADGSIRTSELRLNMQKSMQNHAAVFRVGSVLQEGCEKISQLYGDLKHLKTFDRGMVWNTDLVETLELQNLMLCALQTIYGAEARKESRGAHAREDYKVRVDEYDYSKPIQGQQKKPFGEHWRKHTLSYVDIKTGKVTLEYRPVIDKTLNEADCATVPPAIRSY", "T1 sequence (Q9CQA3 31-282 partner)": "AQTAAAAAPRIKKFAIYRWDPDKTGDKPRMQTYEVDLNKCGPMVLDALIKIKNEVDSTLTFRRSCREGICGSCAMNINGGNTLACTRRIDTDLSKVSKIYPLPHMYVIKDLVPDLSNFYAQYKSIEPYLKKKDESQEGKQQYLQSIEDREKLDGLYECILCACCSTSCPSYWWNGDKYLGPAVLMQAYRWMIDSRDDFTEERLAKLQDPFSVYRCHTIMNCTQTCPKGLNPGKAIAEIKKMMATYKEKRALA", "T1 sequence (Q9CZB0 30-169 partner)": "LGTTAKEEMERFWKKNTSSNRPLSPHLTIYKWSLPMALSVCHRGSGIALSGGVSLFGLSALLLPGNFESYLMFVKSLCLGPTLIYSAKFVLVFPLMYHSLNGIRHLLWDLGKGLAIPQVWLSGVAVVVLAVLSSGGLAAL", "T1 sequence (Q9CXV1 57-159 partner)": "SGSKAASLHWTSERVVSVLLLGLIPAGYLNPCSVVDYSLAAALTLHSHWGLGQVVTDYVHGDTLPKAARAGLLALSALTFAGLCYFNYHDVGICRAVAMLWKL", "test": "SDH activity in mouse heart and liver", "type": "in vivo", "settings": "daily DI administration i.p.", "description": "DI was administered to mice via the intraperitoneal route at 20 mg/500 μL sterile PBS per mouse either once per day for total length of 4 days (DI daily) or every 2 h, 3 times in total (DI overdose). In daily DI administration, last injection was 6 h before the tissue harvest, in DI overdose protocol last injection was 2 h before harvest. Mice were euthanized and heart (50 mg) and liver tissue (200 mg) were harvested, washed in PBS and processed for mitochondria isolation with Mitochondria Isolation Kit for Tissue (#89801, Thermo Scientific) according to manufacturer's instruction. For analysis of mitochondria purity cytoplasmic and mitochondrial fractions were diluted with reducing sample buffer and analyzed by western blot for SDH and GAPDH presence (see western blot analysis section). SDH activity in isolated mitochondria was analyzed using SDH Activity Colorimetric Kit (#MAK197, Sigma). Isolated mitochondria were directly resuspended in SDH Assay Buffer. In parallel, protein concentration in each sample was determined using RC/DC™ Protein Assay (Biorad) and activity was normalized to protein concentration."}, "[1]": {"system": "IκBζ target genes (Defb4, S100a7a, Lcn2, S100a9)", "test": "IκBζ target gene expression in IL-17A-stimulated human keratinocytes (qPCR)", "type": "cell-based", "settings": "DI 12 h", "description": "RNA from cultured cells was isolated using a Total RNA I kit (OMEGA). RNA from mouse ear skin was extracted using RNAeasy mini kit (Qiagen) after tissue disruption with sterile zirconium beads on a MagNA Lyser (Roche). Isolated RNA was reverse transcribed using AffinityScript Multi-Temp reverse transcriptase (Agilent Technologies) according to the manufacturer's protocol. Reactions were performed in 96-well plates using a SYBR Green PCR Master mix (Thermo Fisher Scientific) using a LightCycler® 96 or LightCycler® 480 (Roche Diagnostics). All assays were performed at least in duplicates, and reaction mixtures in 20 μL volumes (96-plate) or 10 μL volumes (384-plate) were processed under the following cycling conditions: initial 10 min denaturation at 95° C., followed by 40 cycles at 95° C. for 10 s, 60° C. for 1 min. Threshold cycle (CT) values for each sample were determined by automated threshold analysis. Expression levels of all mRNAs were normalized to reference gene Actb in BMDMs or to Rpl19 in mouse keratinocytes and tissue samples; to ACTB in human blood monocytes or RPLP0 in human keratinocytes. The relative increase in the expression level of a gene was normalized to the level of expression in unstimulated control cells in each experiment. IκBζ-dependent genes selected for analysis in macrophages were previously published. […]"}, "IκBζ [2]": {"system": "IκBζ", "test": "LPS-induced Ikb-ζ protein induction in BMDMs (western blot)", "type": "cell-based, mouse", "description": "(§1) BMDM were prepared from 6- to 12-week-old mice as described 1 and cultured in RMPI-1640 medium supplemented with 10% fetal bovine serum (FBS), 2 mM L-glutamine, and 100 U/mL penicillin-streptomycin and mouse recombinant M-CSF ([…], Peprotech). For experiments, cells were seeded at concentration 10^6 cells/mL in tissue culture plates of various formats. The cells were treated with DI (250 μM (unless stated otherwise), cat #592498, Sigma), DMF (50 μM (unless stated otherwise), cat #242926, Sigma), 3-(ethoxycarbonyl)but-3-enoic acid (3MI, 5 μM, Aris Pharmaceuticals Inc.), 4-ethoxy-2-methylene-4-oxobutanoic acid (MI, Aris Pharmaceuticals Inc.) for 12 h and activated with lipopolysaccharide (LPS; 100 ng/mL; E. coli 0111:B4, Sigma) for 1 h or as indicated. In some experiments cells were stimulated with combination of LPS (20 ng/mL) and IFN-γ (50 ng/mL; Peprotech). In some experiments cells were treated with α-tocopherol (AT, 10 μM; Sigma), MitoTEMPO (MT, 500 μM; Sigma), N-acetylcysteine (NAC, 1 mM, Sigma), ethylester of GSH (EtGSH; 1 mM, Santa Cruz) or buthionene sulfoximine (BSO, 500 μM, Sigma) alone or in combination with DI for 12 h. In some experiments BMDMs were treated with DI for 12 h and bafilomycin A (BafA, 100 nM, Sigma) or MG132 (10 μM, Selleckchem) were added 30 min before subsequent LPS stimulation.\nCells were lysed in RIPA Lysis Buffer System (Santa Cruz) and heat-denatured at 95° C. for 5 min in reducing sample buffer (BioRad). Proteins were separated on 4%-20% polyacrylamide gradient gels (BioRad) and transferred onto 0.45 μm pore size PVDF membranes (Millipore). Non-specific binding was blocked with 5% skim milk (or 5% BSA when phospho-proteins were analyzed), and membranes were probed with primary antibodies specific to Nrf2 (#12721), HO-1 (#70081), IκBζ (mouse specific, #93726), IκBζ(#9244), ATF3 (#D2Y5W), IRAK1 (#4504; sensitivity of IRAK1 detection diminishes upon IRAK1 K63 ubiquitination), phospho-IKK (Ser176/180, #2697), p62/SQSTM1 (#5114), phospho-eIF2α (Ser51, #9721), eIF2α (#5324) from Cell Signaling; GAPDH (sc-25778), IκBα (sc-1643), ATF3 (sc-188), SDHA (sc-166909) from Santa Cruz; NQO1 (ab28947) from Abeam, followed by incubation with anti-rabbit-HRP (1:10,000; sc-2030) or anti-mouse-HRP (1:10,000; sc-2031) from Santa Cruz and Clarity western ECL substrate (Bio-Rad). Membranes were exposed to X-Ray films (Research Products International Corp.) and developed using SRX-101A film processor (Konica Minolta). GAPDH run on the same blot was used as loading control. After scanning of original films image brightness of some blots was adjusted and bands were cropped using ImageJ. Densitometry was performed using ImageJ."}, "ATF3": {"system": "ATF3", "test": "ATF3 protein expression (western blot)", "type": "cell-based, mouse", "settings": "BMDMs, DI, also on Nrf2−/− background", "description": "as §1, with “In some experiments BMDMs were treated with DI for 12 h and bafilomycin A (BafA, 100 nM, Sigma) or MG132 (10 μM, Selleckchem) were added 30 min before subsequent LPS stimulation.” left out\n(§2) Cells were lysed in RIPA Lysis Buffer System (Santa Cruz) and heat-denatured at 95° C. for 5 min in reducing sample buffer (BioRad). […] Non-specific binding was blocked with 5% skim milk (or 5% BSA when phospho-proteins were analyzed), and membranes were probed with primary antibodies specific to Nrf2 (#12721), HO-1 (#70081), IκBζ (mouse specific, #93726), IκBζ(#9244), ATF3 (#D2Y5W), IRAK1 (#4504; sensitivity of IRAK1 detection diminishes upon IRAK1 K63 ubiquitination), phospho-IKK (Ser176/180, #2697), p62/SQSTM1 (#5114), phospho-eIF2α (Ser51, #9721), eIF2α (#5324) from Cell Signaling; GAPDH (sc-25778), IκBα (sc-1643), ATF3 (sc-188), SDHA (sc-166909) from Santa Cruz; NQO1 (ab28947) from Abeam, followed by incubation with anti-rabbit-HRP (1:10,000; sc-2030) or anti-mouse-HRP (1:10,000; sc-2031) from Santa Cruz and Clarity western ECL substrate (Bio-Rad). […]"}, "STAT3": {"system": "STAT3", "test": "STAT3 activation in LPS-stimulated BMDMs (western blot)", "type": "cell-based, mouse", "description": "as §1, with “In some experiments BMDMs were treated with DI for 12 h and bafilomycin A (BafA, 100 nM, Sigma) or MG132 (10 μM, Selleckchem) were added 30 min before subsequent LPS stimulation.” left out\nas §2"}, "IκBζ [3]": {"system": "IκBζ", "test": "IL-17A-induced IκBζ in primary human keratinocytes (western blot)", "type": "cell-based", "settings": "DI 12 h, IL-17A 100 ng/ml", "description": "Cells were lysed in RIPA Lysis Buffer System (Santa Cruz) and heat-denatured at 95° C. for 5 min in reducing sample buffer (BioRad). Proteins were separated on 4%-20% polyacrylamide gradient gels (BioRad) and transferred onto 0.45 μm pore size PVDF membranes (Millipore). Non-specific binding was blocked with 5% skim milk (or 5% BSA when phospho-proteins were analyzed), and membranes were probed with primary antibodies specific to Nrf2 (#12721), HO-1 (#70081), IκBζ (mouse specific, #93726), IκBζ(#9244), ATF3 (#D2Y5W), IRAK1 (#4504; sensitivity of IRAK1 detection diminishes upon IRAK1 K63 ubiquitination), phospho-IKK (Ser176/180, #2697), p62/SQSTM1 (#5114), phospho-eIF2α (Ser51, #9721), eIF2α (#5324) from Cell Signaling; GAPDH (sc-25778), IκBα (sc-1643), ATF3 (sc-188), SDHA (sc-166909) from Santa Cruz; NQO1 (ab28947) from Abeam, followed by incubation with anti-rabbit-HRP (1:10,000; sc-2030) or anti-mouse-HRP (1:10,000; sc-2031) from Santa Cruz and Clarity western ECL substrate (Bio-Rad). Membranes were exposed to X-Ray films (Research Products International Corp.) and developed using SRX-101A film processor (Konica Minolta). GAPDH run on the same blot was used as loading control. After scanning of original films image brightness of some blots was adjusted and bands were cropped using ImageJ. Densitometry was performed using ImageJ. […]"}}, "note": "“Also recorded” adds a separate entry of the source.", "data": [{"smiles": "C=C(CC(=O)OC)C(=O)OC", "note": "[DI, dimethyl itaconate]", "values": [{"measurement": "SDH activity in heart and liver", "setting": "SDH", "value": "did not significantly affect SDH activity"}, {"measurement": "expression of IL-17A signature / IκBζ target genes", "setting": "[1]", "value": "also inhibited; also recorded: downregulated"}, {"measurement": "IκBζ protein levels upon DI treatment in Atf3−/− cells", "setting": "IκBζ [2]; Atf3−/− BMDMs, DI, LPS", "value": "restored IκBζ protein levels"}, {"measurement": "LPS-induced Ikb-ζ induction, protein level", "setting": "IκBζ [2]; BMDMs treated with compound 12 h, then LPS 100 ng/ml", "value": "almost complete inhibition; also recorded: completely abolished; also recorded: inhibited IκBζ induction"}, {"measurement": "effect on IκBζ/IL-6 in combination with BSO", "setting": "IκBζ [2]; BMDMs, compound plus BSO 500 μM, LPS", "value": "enhanced the inhibitory effect"}, {"measurement": "DI inhibition of Ikb-ζ induction in Nrf2-deficient cells", "setting": "IκBζ [2]; Nrf2 KO BMDMs, DI 250 μM 12 h, LPS", "value": "did not affect inhibition of Ikb-ζ induction; also recorded: did not alleviate"}, {"measurement": "IκBζ inhibition by DI in p62/SQSTM1- or HO-1-lacking macrophages", "setting": "IκBζ [2]; macrophages genetically lacking p62/SQSTM1 or HO-1", "value": "did not rescue IκBζ inhibition by DI"}, {"measurement": "ATF3 protein", "setting": "ATF3", "value": "upregulated"}, {"measurement": "STAT3 activation (Y705 phosphorylation)", "setting": "STAT3; BMDMs, 12 h pretreatment", "value": "inhibits STAT3 activation"}, {"measurement": "inhibition of STAT3 activation, Nrf2 KO compared with WT", "setting": "STAT3; Nrf2 KO BMDMs, DI 250 μM 12 h", "value": "no differences in extent of inhibition of STAT3 activation"}, {"measurement": "IL-17-induced IκBζ induction", "setting": "IκBζ [3]", "value": "inhibited"}]}]}
